Measured values from ChEMBL document CHEMBL1141307, “Antimalarial benzoquinones from an endophytic fungus, Xylaria sp” (J Nat Prod, 2007).
The source made the active and inactive calls. The rule behind the calls is not given here.

How the values were obtained:
Plasmodium falciparum = experiment: Antimalarial activity against multidrug-resistant Plasmodium falciparum K1 by microculture radioisotope assay; assay type: functional, organism-based
Vero = experiment: Cytotoxicity against African green monkey Vero cells after 72 hrs; assay type: cell-based; conditions: Chlorocebus sabaeus

SMILES | Activity (Plasmodium falciparum) | Activity (Vero) | IC50 (Vero) [nM] | IC50 (Plasmodium falciparum) [nM]
C[C@H]1OC(=O)c2c(O)cccc2C1O (stereo not given in full) | inactive | Not Active | – | –
Cc1c2ccncc2c(C)c2c1[nH]c1ccccc12 [ELLIPTECINE] | – | – | 2030 | –
COc1cc2c3c(oc2c(C)c1O)C(=O)C(C)=CC3=O [XYLARIAQUINONE A] | – | – | > 184000 | 6680
C[C@H]1[C@@H](O)O[C@@H]2O[C@@]3(C)CC[C@H]4[C@H](C)CC[C@@H]1[C@@]24OO3 [ARTENIMOL] | – | – | – | 3.3
COC1=CC(=O)C(O)=C(C)C1=O | inactive | Not Active | – | –
COC1=CC(=O)C(Cl)=C(C)C1=O | – | – | 1350 | 1840
